Results published in patent US11553713B2, “Polyalcohol, carbohydrate, nucleobase and nucleotide compositions and uses thereof” (Chunbo Zhang, priority 2015, dated 2023).

What was measured:
[1] = system: female mosquitoes; assay: Efficacy by ingestion: feeder test in 6-liter cage, death rate of female mosquitoes; assay type: in vivo; conditions: for Death Rate within 24 hrs after treatment removed / Death Rate within 2 days after treatment removed / Death Rate within 3 days after treatment removed / Death Rate within 4 days after treatment removed / Death Rate: 10% sugar in CPDA, 24 hrs; for timing of death after ingestion (“delayed” death): after treatment was removed
Description: Female mosquitoes were used in the experiment because only female mosquitoes bite humans and animals and transmit infectious diseases.
(2R)-3-fluoropropane-1,2-diol (rFOH) was used as the active agent at various concentrations. A sugar feeder containing 10% sucrose, which is a regular mosquito feeder in a laboratory setting, was used as a regular food source in free choice studies. A free choice study allows the pests to select which feeder to feed on when given two or more choices.
In a two-choice test, a 6-liter cage was supplied with two feeders, one contained 5% rFOH and 10% sucrose in CPDA and the other one contained 10% sucrose without any rFOH or CPDA. 100 female mosquitoes were placed in the cage having the two feeders such that the mosquitoes chose freely which feeder to feed on. After 24 hours of feeding in the cage, over 80% of mosquitoes were dead. […] When the concentration of rFOH was reduced to 1% or 0.15%, its effectiveness remained the same. Over 80% of mosquitoes were dead due to 24 hours of feeding with rFOH.
Subsequent to 24 hours of feeding, rFOH feeder was removed from the cage and a regular sugar feeder (10% sucrose) was provided. In the next day, 5-20% of residual death was observed, indicating a delayed death after rFOH ingestion.
In a further study, mosquitoes were fasted for 24 hours before feeding to ensure that all mosquitoes have the capacity for food intake. […] Thus, fasting is not a cause of mosquito death during a series of experiments.
The experiments determined that 0.1% rFOH was sufficient to achieve 50% death (LD50) under various conditions. In one study, 100 mosquitoes were caged in a 6-liter space and fasted for 24 hours. Subsequently, the mosquitoes were fed on two feeders giving their free choices for 0.1% rFOH containing 10% sucrose in CPDA or 10% sucrose without rFOH for 24 hours, resulting in 43% death. In a parallel study in which the cage was supplied with a single feeder, the 0.1% rFOH feeder containing 10% sucrose in CPDA, which caused 44% of death after 24 hours of feeding.
Similar experiments as disclosed above were performed with various rFOH concentrations under various conditions. The rFOH composition contained 10% sugar in CPDA solution unless specified otherwise.
Similar experiments as disclosed above were performed on female mosquitoes to determine LD50. The rFOH composition contained 10% sugar in CPDA solution unless specified otherwise.
(§1) Similar experiments as disclosed above were performed on female mosquitoes using different active agents at various concentrations. The active agent composition contained 10% sugar in CPDA solution unless specified otherwise.

[2] = system: Methicillin/oxacillin resistant Staphylococcus aureus (MRSA) strain (ATCC 43300); assay: MIC test, broth microdilution (CLSI M07-A9); assay type: cell-based
Method: (§2) The effects of pesticides disclosed herein on various bacteria were tested by determining the minimal inhibitory concentration (MIC) of the pesticides. MIC of an antimicrobial agent is the lowest concentration of the antimicrobial agent that inhibits a given bacterial isolate from multiplying and producing visible growth in the test system. The MIC of rFOH and BrOH was determined in the laboratory by incubating a known quantity of bacteria with a series of dilutions of the active agents and comparing their effects with those of known antimicrobial agents. Table 6 lists the representative bacterial strains and the conditions in MIC tests. Antimicrobial tests of the active agents were conducted according to “Methods for Dilution Antimicrobial Susceptibility Tests for Bacteria That Grow Aerobically” by Clinical and Laboratory Standards Institute (CLSI) (CLSI document M07-A9, 2012). In the study, methicillin/oxacillin resistant Staphylococcus aureus (MRSA) strain (ATCC 43300) was routinely under screening with 4 ug/ml oxacillin. Escherishia coli DH5α was a nonpathogenic laboratory strain. […] When the DH5α/plasmid (DH5P) colony was used, the colony was maintained in the presence of 100 ug/ml ampicillin.
(§3) MIC tests were conducted in 96 well microtiter plates with a total volume of 150 ul broth in each well. The directly colony suspension method (CLSI document M07-A9, 2012) was applied to obtain MIC for antimicrobial tests of the active agents. After colonies were freshly incubated overnight, colonies were suspended in sterile water to adjust the inoculum to a turbidity equivalent to a 0.5 McFarland standard (corresponding to approximately 1.5×10^8 CFU/ml). Within 10 minutes, the inoculum was adjusted by dilution in broth to reach a final concentration of 5×10^5 CFU/ml. A series of various concentrations of the active agents were applied to determine the MIC. In the same microtiter plate, an internal standard formulated by a concentration series of standard antibiotic agent was incubated in parallels to allow for back-to-back comparison.

[3] = system: Escherishia coli DH5α transformed with a pcDNA3 plasmid (DH5P); assay: MIC test, broth microdilution (CLSI M07-A9); assay type: cell-based
Method: as §2, §3

[4] = system: Escherishia coli DH5α; assay: MIC test, broth microdilution (CLSI M07-A9); assay type: cell-based
Method: as §2, §3

[5] = Stability of FOH; assay type: physicochemical; conditions: normal temperature and pressure
Method: In some embodiments, 3-fluoropropane-1,2-diol (FOH) (R^1═R^2=R^3═R^5═H, n=2, m=0 in formula I) is exemplified as an active agent of the compositions disclosed herein. FOH has two enantiomeric isomers (2r)-3-fluoropropane-1,2-diol (rFOH) and (2s)-3-fluoropropane-1,2-diol (sFOH). FOH is a nonvolatile chemical having a boiling point of 205.4° C. at 760 mm Hg, a flash point of 87.2° C., and a density of 1.192 g/cm^3. FOH is stable under normal temperature and pressure. The chemical synthesis of FOH is known in the art (Dummel et al., J. Med. Chem. 12(2): 347 (1969)). The chemical structure of FOH, representing both rFOH and sFOH, is shown below: […]

[6] = system: female mosquitoes; assay: Membrane feeding test, death rate of female mosquitoes; assay type: in vivo; conditions: active agent at 1%; 18 hrs fasting; membrane feeding for 1 hour and 45 minutes before sugar feeder provided
Method: as §1
This is because membrane feeding provides only a small space accessible to a limited number of mosquitoes for feeding.

[7] = active agent at 1%, 24 hrs fasting, sugar feeder not provided
[8] = active agent at 1.5%, 24 hrs fasting, sugar feeder not provided
[9] = active agent at 0.5%, 24 hrs fasting, sugar feeder not provided
[10] = Tryptic soy broth, 37° C. for 24 hrs, listed as BrOH
[11] = internal standard in the same microtiter plate
[12] = active agent at 0.5%, not fasted, sugar feeder provided for free choice

## Nc1nc(F)nc2c1ncn2[C@@H]1O[C@H](CO)[C@@H](O)[C@H]1O [2-Fluoroadenosine]
[1]; [7]
  Death Rate within 24 hrs after treatment removed: 22% within
  Death Rate within 2 days after treatment removed: removed, 47%
  Death Rate within 3 days after treatment removed: removed, 64%
  Death Rate within 4 days after treatment removed: 75-80% within
[1]; active agent at 1%, 24 hrs fasting, sugar feeder not provided, listed as 2-fluoroadenosine
  Death Rate within 4 days after treatment removed: 75-80%
[1]
  timing of death after ingestion (“delayed” death): delayed

## OCC(CO)c1ccccc1 [2-Penyl-1,3-propanediol]
[1]; [8]
  Death Rate: 61%

## C[C@@H](Cl)C(=O)O [(R)-(+)-2-Chloropropionic acid]
[1]; [9]
  Death Rate: 10%

## OCC(O)CBr (stereo not drawn) [3-Bromopropane-1,2-diol]
[2]; Mueller Hinton broth with 2% NaCl and 50 ug/ml CaCl2, 35° C. for 24 hrs, listed as BrOH
  MIC: 2.5%
[3]; [10]
  MIC: 0.2%
[4]; [10]
  MIC: 0.025%
[1]; active agent at 0.15%, 24 hrs fasting, sugar feeder provided for free choice, death found for a week after treatment was removed
  Death Rate: 30-52%
[1]; active agent at 0.2%, 24 hrs fasting, sugar feeder not provided, death found for a week after treatment was removed
  Death Rate: >85% death
[1]
  timing of death after ingestion (“delayed” death): Delayed

## CC(C)(O)C(C)(C)O [2,3-Dimethylbutane-2,3-diol]
[1]; [8]
  Death Rate: 53%

## Nc1nc(F)nc2nc[nH]c12 [2-Fluoroadenine]
[1]; active agent at 0.2%, 24 hrs fasting, sugar feeder provided for free choice
  Death Rate: 30%

## OCC(O)CCl (stereo not drawn) [3-Chloro-1,2-propanediol]
[1]; active agent at 0.15%, 24 hrs fasting, sugar feeder not provided
  Death Rate: >85%

## OC[C@H](O)CF [sFOH, (2s)-3-fluoropropane-1,2-diol]
[1]; active agent at 0.3%, 24 hrs fasting, sugar feeder not provided, death found for a week after treatment was removed
  Death Rate: 42-68%
[1]; active agent at 0.5%, 24 hrs fasting, sugar feeder not provided, death found for a week after treatment was removed
  Death Rate: >85% death
[1]
  timing of death after ingestion (“delayed” death): Delayed

## CO[C@@]1(NC(=O)Cc2cccs2)C(=O)N2C(C(=O)O)=C(COC(N)=O)CS[C@@H]21 [cefoxitin, reference compound]
[2]; [11]
  Comparable Effectiveness (standard antibiotic concentration as effective as 0.4% rFOH): 48 µg/mL

## OCC(O)CF (stereo not drawn) [FOH, 3-fluoropropane-1,2-diol]
[5]
  stability: stable

## CC(C)(CO)CO [2,2-Dimethyl-1,3-propanediol]
[1]; active agent at 0.5%, 24 hrs fasting, sugar feeder provided for free choice
  Death Rate: 10%

## OC1CCCCC1O (stereo not drawn) [1,2-cyclohexanediol]
[1]; [9]
  Death Rate: 22%

## CC(CO)CO [2-Methyl-1,3-propanediol]
[1]; [9]
  Death Rate: 12%

## Nc1ccn([C@@H]2O[C@H](CO)[C@@H](O)C2(F)F)c(=O)n1 [Gemcitabine, reference compound]
[1]; [12]
  Death Rate within 24 hrs after treatment removed: 3% within
  Death Rate within 2 days after treatment removed: removed, 36%
  Death Rate within 3 days after treatment removed: 66%

## O=c1[nH]c(=O)n([C@H]2C[C@H](O)[C@@H](CO)O2)cc1F [2′-Deoxy-5-fluorouridine]
[1]; active agent at 2%, 24 hrs fasting, sugar feeder not provided
  Death Rate: 24%

## OC[C@H]1O[C@@H](O)[C@H](O)[C@@H](O)[C@@H]1F [4-Deoxy-4-fluoro-β-D-glucopyranose]
[6]
  Death Rate in 2 hours: 10% in 2
  Death Rate in 24 hours: hours, 17%
  Death Rate in the first hour: 2% in the

## CC1(C)S[C@@H]2[C@H](NC(=O)[C@H](N)c3ccccc3)C(=O)N2[C@H]1C(=O)O [ampicillin, reference compound]
[3]; [11]
  Comparable Effectiveness (standard antibiotic concentration as effective as 0.4% rFOH): 240 µg/mL
[4]; [11]
  Comparable Effectiveness (standard antibiotic concentration as effective as 0.4% rFOH): 19 µg/mL

## NC(CO)CO [2-Amino-1,3-propanediol]
[1]; [9]
  Death Rate: 16%

## OCC1(CO)CCC1 [1,1-Bis(hydroxymethyl)cyclobutane]
[1]; [9]
  Death Rate: 50%
